Test results reported in patent publication US9896435B2, “N-pyrrolidinyl,N′-pyrazolyl-urea, thiourea, guanidine and cyanoguanidine compounds as TrkA kinase inhibitors” (Array BioPharma Inc., priority 2012, dated 2018).

Legend:
Assay in all cases: KinaseProfiler off-target kinase profiling
Type in all cases: biochemical
Details in all cases: 10 μM, ATP near Km
RIPK2 = RIPK2 (Homo sapiens (Human), UniProt O43353)
Summary of the method: (§1)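 Duplicate measurements were taken for compound at 10 μM with ATP near each kinase's Km. Values represent mean percent of control.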

FGFR3 = FGFR3 (Homo sapiens (Human), UniProt P22607)
FGFR3, sequence (P22607 23-806): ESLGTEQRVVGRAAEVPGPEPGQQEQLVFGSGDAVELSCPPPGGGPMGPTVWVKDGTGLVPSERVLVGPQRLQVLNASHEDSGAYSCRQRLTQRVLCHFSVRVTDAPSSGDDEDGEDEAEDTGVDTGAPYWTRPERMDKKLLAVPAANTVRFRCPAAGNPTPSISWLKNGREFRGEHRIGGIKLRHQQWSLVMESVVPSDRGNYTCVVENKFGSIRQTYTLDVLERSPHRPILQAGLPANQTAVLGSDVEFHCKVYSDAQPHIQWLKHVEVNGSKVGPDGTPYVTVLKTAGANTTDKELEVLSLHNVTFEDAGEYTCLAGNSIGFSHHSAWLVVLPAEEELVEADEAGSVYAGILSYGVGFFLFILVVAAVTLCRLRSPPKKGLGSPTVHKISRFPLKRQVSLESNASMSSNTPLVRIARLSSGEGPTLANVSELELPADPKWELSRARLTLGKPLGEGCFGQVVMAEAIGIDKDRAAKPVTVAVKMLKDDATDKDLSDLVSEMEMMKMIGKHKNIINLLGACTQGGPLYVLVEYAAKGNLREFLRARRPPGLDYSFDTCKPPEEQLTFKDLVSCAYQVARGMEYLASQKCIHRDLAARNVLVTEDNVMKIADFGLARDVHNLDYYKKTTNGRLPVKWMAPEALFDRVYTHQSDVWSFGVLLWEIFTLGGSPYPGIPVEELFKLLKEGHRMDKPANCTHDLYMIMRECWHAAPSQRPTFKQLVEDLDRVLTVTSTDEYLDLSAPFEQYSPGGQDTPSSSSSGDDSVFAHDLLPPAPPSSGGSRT
Summary of the method: as §1

ERK1 = ERK1 (Homo sapiens (Human), UniProt P27361)
Summary of the method: as §1

PAK5 = PAK5 (Homo sapiens (Human), UniProt Q9P286)
Summary of the method: as §1

SIK = SIK (Homo sapiens (Human), UniProt P57059)
Summary of the method: as §1

PKCiota = PKCiota (Homo sapiens (Human), UniProt P41743)
Summary of the method: as §1

Txk = Txk (Homo sapiens (Human), UniProt P42681)
Summary of the method: as §1

CK2alpha2 = CK2alpha2 (Homo sapiens (Human), UniProt P19784)
Summary of the method: as §1

PKCbetaII = PKCbetaII (Homo sapiens (Human), UniProt P05771)
PKCbetaII, sequence (P05771 other isoform, or with tags, fused parts or gaps): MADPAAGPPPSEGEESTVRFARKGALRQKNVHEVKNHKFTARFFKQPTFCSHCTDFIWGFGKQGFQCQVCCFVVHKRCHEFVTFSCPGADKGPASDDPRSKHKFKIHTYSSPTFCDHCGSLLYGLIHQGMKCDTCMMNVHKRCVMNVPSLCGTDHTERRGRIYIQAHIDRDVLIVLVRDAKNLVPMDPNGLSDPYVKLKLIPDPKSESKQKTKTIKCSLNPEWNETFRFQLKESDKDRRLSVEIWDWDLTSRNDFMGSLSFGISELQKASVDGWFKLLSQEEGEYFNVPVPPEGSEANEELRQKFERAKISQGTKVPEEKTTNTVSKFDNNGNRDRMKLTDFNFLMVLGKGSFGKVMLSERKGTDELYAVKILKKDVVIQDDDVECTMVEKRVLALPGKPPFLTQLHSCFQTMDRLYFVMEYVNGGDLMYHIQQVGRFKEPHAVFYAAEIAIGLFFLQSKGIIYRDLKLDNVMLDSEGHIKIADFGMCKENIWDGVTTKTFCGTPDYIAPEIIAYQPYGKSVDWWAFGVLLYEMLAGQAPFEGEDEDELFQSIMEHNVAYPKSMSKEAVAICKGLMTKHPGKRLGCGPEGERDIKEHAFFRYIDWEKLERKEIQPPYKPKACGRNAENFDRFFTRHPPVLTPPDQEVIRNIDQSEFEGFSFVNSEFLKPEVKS
Summary of the method: as §1

CLK2 = CLK2 (Homo sapiens (Human), UniProt P49760)
Summary of the method: as §1

Pim-3 = Pim-3 (Homo sapiens (Human), UniProt Q86V86)
Summary of the method: as §1

HIPK3 = HIPK3 (Homo sapiens (Human), UniProt Q9H422)
Summary of the method: as §1

CDK1/cyclinB = CDK1/cyclinB (Homo sapiens (Human), UniProt P06493)
Summary of the method: as §1

TrkA = TrkA (Homo sapiens (Human), UniProt P04629)
TrkA, sequence (P04629 33-796): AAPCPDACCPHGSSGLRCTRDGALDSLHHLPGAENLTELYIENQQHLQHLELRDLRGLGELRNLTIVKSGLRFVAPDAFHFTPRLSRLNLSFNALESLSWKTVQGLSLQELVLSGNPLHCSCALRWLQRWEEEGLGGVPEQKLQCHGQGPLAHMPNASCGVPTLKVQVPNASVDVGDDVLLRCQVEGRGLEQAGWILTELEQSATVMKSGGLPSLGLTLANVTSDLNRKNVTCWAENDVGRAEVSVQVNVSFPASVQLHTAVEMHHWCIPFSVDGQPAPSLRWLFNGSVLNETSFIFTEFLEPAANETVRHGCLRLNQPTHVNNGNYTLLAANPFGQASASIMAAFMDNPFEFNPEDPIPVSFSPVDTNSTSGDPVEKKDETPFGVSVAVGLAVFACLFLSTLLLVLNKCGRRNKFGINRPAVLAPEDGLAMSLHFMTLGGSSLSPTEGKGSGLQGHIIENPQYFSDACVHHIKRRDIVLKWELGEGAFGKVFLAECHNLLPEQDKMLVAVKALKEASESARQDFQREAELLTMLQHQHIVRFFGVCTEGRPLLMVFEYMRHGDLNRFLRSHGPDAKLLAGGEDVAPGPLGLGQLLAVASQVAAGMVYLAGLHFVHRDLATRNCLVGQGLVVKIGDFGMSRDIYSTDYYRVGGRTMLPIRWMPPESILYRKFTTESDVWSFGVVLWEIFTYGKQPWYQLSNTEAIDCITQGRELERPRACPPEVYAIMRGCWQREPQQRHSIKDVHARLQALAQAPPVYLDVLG
Summary of the method: as §1

CAMK4 = CAMK4 (Homo sapiens (Human), UniProt Q16566)
Summary of the method: as §1

PKCgamma = PKCgamma (Homo sapiens (Human), UniProt P05129)
Summary of the method: as §1

IKKalpha = IKKalpha (Homo sapiens (Human), UniProt O15111)
Summary of the method: as §1

MAPKAP-K3 = MAPKAP-K3 (Homo sapiens (Human), UniProt Q16644)
Summary of the method: as §1

JAK2 = JAK2 (Homo sapiens (Human), UniProt O60674)
Summary of the method: as §1

PTK6 = PTK6 (Homo sapiens (Human), UniProt Q13882)
Summary of the method: as §1

IR = IR (Homo sapiens (Human), UniProt P06213)
IR, sequence (P06213 28-1382): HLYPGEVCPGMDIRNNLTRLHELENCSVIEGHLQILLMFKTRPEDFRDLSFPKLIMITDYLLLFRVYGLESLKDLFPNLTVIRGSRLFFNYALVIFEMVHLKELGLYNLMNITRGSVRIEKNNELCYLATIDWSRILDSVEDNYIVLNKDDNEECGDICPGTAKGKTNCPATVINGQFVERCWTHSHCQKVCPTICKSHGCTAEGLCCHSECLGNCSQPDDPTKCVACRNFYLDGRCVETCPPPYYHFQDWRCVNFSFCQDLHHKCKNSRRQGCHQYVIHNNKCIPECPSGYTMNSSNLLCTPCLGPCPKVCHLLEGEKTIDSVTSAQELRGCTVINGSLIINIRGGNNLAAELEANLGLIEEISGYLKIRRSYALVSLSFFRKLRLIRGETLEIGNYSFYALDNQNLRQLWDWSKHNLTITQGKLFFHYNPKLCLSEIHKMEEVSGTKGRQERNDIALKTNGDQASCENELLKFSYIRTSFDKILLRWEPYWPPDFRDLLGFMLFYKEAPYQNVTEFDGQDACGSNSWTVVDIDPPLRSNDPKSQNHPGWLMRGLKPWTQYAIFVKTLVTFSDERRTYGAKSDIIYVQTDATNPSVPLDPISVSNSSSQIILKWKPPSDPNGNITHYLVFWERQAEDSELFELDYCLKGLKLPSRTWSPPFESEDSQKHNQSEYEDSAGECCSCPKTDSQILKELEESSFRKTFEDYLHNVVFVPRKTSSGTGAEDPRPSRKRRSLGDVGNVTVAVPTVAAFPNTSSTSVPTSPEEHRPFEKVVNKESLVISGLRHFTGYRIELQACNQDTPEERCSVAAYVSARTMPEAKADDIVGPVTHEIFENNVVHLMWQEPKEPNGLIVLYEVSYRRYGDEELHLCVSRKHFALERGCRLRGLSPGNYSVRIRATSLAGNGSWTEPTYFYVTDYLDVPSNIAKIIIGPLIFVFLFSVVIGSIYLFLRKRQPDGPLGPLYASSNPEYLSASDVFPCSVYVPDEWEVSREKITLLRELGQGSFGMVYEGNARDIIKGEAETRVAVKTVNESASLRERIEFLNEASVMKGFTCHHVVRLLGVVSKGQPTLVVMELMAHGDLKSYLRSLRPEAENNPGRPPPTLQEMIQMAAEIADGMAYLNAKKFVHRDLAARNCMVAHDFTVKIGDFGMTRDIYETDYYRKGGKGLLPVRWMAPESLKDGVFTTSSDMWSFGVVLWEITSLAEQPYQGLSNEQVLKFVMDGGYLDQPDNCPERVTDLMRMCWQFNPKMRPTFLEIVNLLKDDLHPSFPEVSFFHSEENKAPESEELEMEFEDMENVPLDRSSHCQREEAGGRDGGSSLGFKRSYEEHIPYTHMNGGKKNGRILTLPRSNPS
Summary of the method: as §1

PASK = PASK (Homo sapiens (Human), UniProt Q96RG2)
Summary of the method: as §1

MAPKAP-K5 = MAPKAP-K5 (Homo sapiens (Human), UniProt Q8IW41)
Summary of the method: as §1

CK1gamma1 = CK1gamma1 (Homo sapiens (Human), UniProt Q9HCP0)
Summary of the method: as §1

EphA7 = EphA7 (Homo sapiens (Human), UniProt Q15375)
Summary of the method: as §1

Fyn = Fyn (Homo sapiens (Human), UniProt P06241)
Summary of the method: as §1

EphA2 = EphA2 (Homo sapiens (Human), UniProt P29317)
Summary of the method: as §1

Abl2 = Abl2 (Homo sapiens (Human), UniProt P42684)
Summary of the method: as §1

Lyn = Lyn (Homo sapiens (Human), UniProt P07948)
Summary of the method: as §1

BrSK1 = BrSK1 (Homo sapiens (Human), UniProt Q8TDC3)
Summary of the method: as §1

PKCepsilon = PKCepsilon (Homo sapiens (Human), UniProt Q02156)
Summary of the method: as §1

LKB1 = LKB1 (Homo sapiens (Human), UniProt Q15831)
Summary of the method: as §1

TAO3 = TAO3 (Homo sapiens (Human), UniProt Q9H2K8)
Summary of the method: as §1

DAPK1 = DAPK1 (Homo sapiens (Human), UniProt P53355)
Summary of the method: as §1

KIT = KIT (Homo sapiens (Human), UniProt P10721)
Summary of the method: as §1

TAK1 = TAK1 (Homo sapiens (Human), UniProt O43318)
Summary of the method: as §1

Rsk4 = Rsk4 (Homo sapiens (Human), UniProt Q9UK32)
Summary of the method: as §1

MuSK = MuSK (Homo sapiens (Human), UniProt O15146)
Summary of the method: as §1

TrkB = TrkB (Homo sapiens (Human), UniProt Q16620)
Summary of the method: as §1

EphA4 = EphA4 (Homo sapiens (Human), UniProt P54764)
EphA4, sequence (P54764 20-986): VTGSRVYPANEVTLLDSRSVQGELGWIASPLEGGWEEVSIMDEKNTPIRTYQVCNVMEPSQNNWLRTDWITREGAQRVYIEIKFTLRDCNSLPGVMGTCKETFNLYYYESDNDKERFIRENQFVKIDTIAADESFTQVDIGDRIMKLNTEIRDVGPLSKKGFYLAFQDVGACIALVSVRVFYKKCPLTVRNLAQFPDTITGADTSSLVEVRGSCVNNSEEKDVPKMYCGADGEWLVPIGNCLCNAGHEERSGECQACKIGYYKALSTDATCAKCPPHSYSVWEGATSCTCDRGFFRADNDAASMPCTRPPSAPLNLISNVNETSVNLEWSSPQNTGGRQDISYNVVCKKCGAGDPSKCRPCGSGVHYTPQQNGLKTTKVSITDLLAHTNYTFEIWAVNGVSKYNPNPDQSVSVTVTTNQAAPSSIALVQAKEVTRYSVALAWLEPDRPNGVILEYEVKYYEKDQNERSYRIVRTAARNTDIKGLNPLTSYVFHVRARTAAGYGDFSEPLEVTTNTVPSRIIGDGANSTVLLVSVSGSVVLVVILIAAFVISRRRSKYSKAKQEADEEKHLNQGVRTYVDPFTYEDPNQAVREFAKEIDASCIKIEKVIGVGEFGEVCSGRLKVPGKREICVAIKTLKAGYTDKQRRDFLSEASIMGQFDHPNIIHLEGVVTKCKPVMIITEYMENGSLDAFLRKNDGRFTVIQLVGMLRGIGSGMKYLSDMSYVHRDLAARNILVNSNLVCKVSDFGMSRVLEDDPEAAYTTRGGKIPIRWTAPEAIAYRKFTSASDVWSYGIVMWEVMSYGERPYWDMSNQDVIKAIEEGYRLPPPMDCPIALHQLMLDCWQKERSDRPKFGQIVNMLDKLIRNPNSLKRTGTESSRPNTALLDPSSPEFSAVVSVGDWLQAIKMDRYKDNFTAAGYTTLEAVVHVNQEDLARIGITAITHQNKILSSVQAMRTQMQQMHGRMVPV
Summary of the method: as §1

| Avg POC (RIPK2) [POC] | Avg POC (FGFR3) [POC] | Avg POC (ERK1) [POC] | Avg POC (PAK5) [POC] | Avg POC (SIK) [POC] | Avg POC (PKCiota) [POC] | Avg POC (Txk) [POC] | Avg POC (CK2alpha2) [POC] | Avg POC (PKCbetaII) [POC] | Avg POC (CLK2) [POC] | Avg POC (Pim-3) [POC] | Avg POC (HIPK3) [POC] | Avg POC (CDK1/cyclinB) [POC] | Avg POC (TrkA) [POC] | Avg POC (CAMK4) [POC] | Avg POC (PKCgamma) [POC] | Avg POC (IKKalpha) [POC] | Avg POC (MAPKAP-K3) [POC] | Avg POC (JAK2) [POC] | Avg POC (PTK6) [POC] | Structure (SMILES) | further results |
| --- | --- | --- | --- | --- | --- | --- | --- | --- | --- | --- | --- | --- | --- | --- | --- | --- | --- | --- | --- | --- | --- |
| 105.5 | 111.5 | 103 | 103 | 106.5 | 95 | 99.5 | 119.5 | 101.5 | 125 | 104 | 99.5 | 104 | 0.5 | 97.5 | 100.5 | 121 | 101.5 | 112.5 | 101 | COCCN1C[C@@H](NC(=O)Nc2c(C)c(-c3ccnc(C)c3)nn2-c2ccccc2)[C@H](c2ccc(F)c(F)c2)C1 [Example 2, 1-((3S,4R)-4-(3,4-difluorophenyl)-1-(2-methoxyethyl)pyrrolidin-3-yl)-3-(4-methyl-3-(2-methylpyridin-4-yl)-1-phenyl-1H-pyrazol-5-yl)urea] | Avg POC (IR): 74.5 POC; Avg POC (PASK): 102.5 POC; Avg POC (MAPKAP-K5): 100 POC; Avg POC (CK1gamma1): 92 POC; Avg POC (EphA7): 101.5 POC; Avg POC (Fyn): 97 POC; Avg POC (EphA2): 110.5 POC; Avg POC (Abl2): 101 POC; Avg POC (Lyn): 112 POC; Avg POC (BrSK1): 104 POC; Avg POC (PKCepsilon): 103.5 POC; Avg POC (LKB1): 89.5 POC; Avg POC (TAO3): 97.5 POC; Avg POC (DAPK1): 97 POC; Avg POC (KIT): 101.5 POC; Avg POC (TAK1): 93 POC; Avg POC (Rsk4): 136.5 POC; Avg POC (MuSK): 103.5 POC; Avg POC (TrkB): 1.5 POC; Avg POC (EphA4): 108.5 POC |
| 93.5 | 133.5 | 78.5 | 107 | 96 | 104.5 | 98.5 | 120 | 92 | 111.5 | 108.5 | 89 | 97 | 1 | 83.5 | 89.5 | 118.5 | 105.5 | 109 | 108.5 | COCCN1C[C@@H](NC(=O)Nc2c(C)c(-c3cnc(C)nc3)nn2-c2ccccc2)[C@H](c2cc(F)cc(F)c2)C1 [Example 14, 1-((3S,4R)-4-(3,5-difluorophenyl)-1-(2-methoxyethyl)pyrrolidin-3-yl)-3-(4-methyl-3-(2-methylpyrimidin-5-yl)-1-phenyl-1H-pyrazol-5-yl)urea] | Avg POC (IR): 84 POC; Avg POC (PASK): 100.5 POC; Avg POC (MAPKAP-K5): 123.5 POC; Avg POC (CK1gamma1): 80 POC; Avg POC (EphA7): 106.5 POC; Avg POC (Fyn): 91.5 POC; Avg POC (EphA2): 96 POC; Avg POC (Abl2): 95.5 POC; Avg POC (Lyn): 105.5 POC; Avg POC (BrSK1): 94 POC; Avg POC (PKCepsilon): 114.5 POC; Avg POC (LKB1): 103.5 POC; Avg POC (TAO3): 100.5 POC; Avg POC (DAPK1): 99.5 POC; Avg POC (KIT): 101.5 POC; Avg POC (TAK1): 88 POC; Avg POC (Rsk4): 113.5 POC; Avg POC (MuSK): 98.5 POC; Avg POC (TrkB): 4.5 POC; Avg POC (EphA4): 103.5 POC |
